“Also recorded” adds a separate entry of the source.
Tests used:
[1] = test system: acute pancreatitis murine model; experiment: Caerulein-induced acute pancreatitis murine model; format: in vivo, Balb/c mice; parameters: Serum IL33 level / Serum TGF-B level: unit not given here; settings: for Amylase / IL-33 / Lipase / MPO / Schmidt Score / TGF-B / Trichome staining (Fibrosis % area) / TGF-B levels in pancreas / pancreatic tissue levels of IL33: IV; for Amylase / IL-33 / Lipase / MPO / Schmidt Score / TGF-B / Trichome staining (Fibrosis % area): 15 mg/kg, Pirfenidone 100 mg/kg; for Schmidt Score (H&E): induced + vehicle = 10, non-induced = 0; for Pancreas IL33 level / Pancreas MPO activity / Pancreas TGF-B level: terminal pancreatic tissue; for Serum IL33 level / Serum TGF-B level / Serum amylase level / Serum lipase level: terminal serum; for TGF-B levels in pancreas / pancreatic tissue levels of IL33: first experiment; for pancreatic tissue levels of IL33: compared to the induced group
Procedure: Therapeutic efficacy of the compounds according to the present invention was assessed on an acute pancreatitis murine model. Tissue samples were obtained to allow post in-life analysis of pancreatitis parameters. Plasma samples were also obtained to assess animal exposure levels after administration of the compounds.
Animals: A total of 70 female Balb/c mice aged 8-10 weeks weighing approximately 20-25 g were used for the study (Charles River). After 7 days acclimatization, they were allocated into the different groups. […] Cages, bedding, and water were sanitized before use. Animals were provided with Corn-o-cobs enrichment bedding to provide environment enrichment and nesting material. […] The animal holding room were maintained as follows—room temperature at 20-24° C., humidity at 30-70% and a 12 h light/dark cycle used. Although animals used in this study were immuno-competent, preparation of dosing solutions and dosing/weighing of animals were carried out in a sterile biosafety cabinet.
Final formulation was in 5% DMSO, 10% Solutol, 10% PEG400, 75% 0.9% Saline and pH adjusted to 7 with 0.5M NaOH solution.
Final formulation is in 5% DMSO, 10% Solutol, 10% PEG400, 75% 0.9% Saline and pH adjusted to 7 with 0.5M NaOH solution. For per os (PO) dosing IVc-059a is formulated in water. Drug solutions were formulated on the day of dosing.
The purposes of this study were to assess efficacy compounds in an acute pancreatitis model (14 days), generate tissue samples to allow post in-life analysis of pancreatitis parameters and generate four plasma samples to assess animal exposure levels after first and last injection obtained from blood samples taken 1 h and 24 h after first and last injection.
Study Design: On the first study day animals were randomly be assigned to treatment groups, ensuring an equal spread of bodyweight. Mice (except negative control group) were treated with test compounds were given 5 minutes prior to caerulein dosing, followed by injection with caerulein at […] via intraperitoneal route (IP) daily during the study.
Treatment of test compounds were given 5 minutes prior to caerulein dosing.
Sampling and post in-life analyses: at times indicated above a whole blood sample (60 μl) were taken from the lateral tail vein into tubes coated with K2-EDTA. Plasma samples were prepared and stored frozen at −20° C. Plasma samples were sent to client bioanalysis provider Eurofins (FR) for quantification of compound.
Terminal Sampling: Prior to termination animals were weighed. Terminal study animals were culled via CO2 inhalation. A terminal blood sample was taken via cardiac puncture and plasma prepared. Lipase and Amylase activities were measured via ELISA using commercially available ELISA kits. Remaining plasma was stored for future cytokine analyses. Pancreas tissue was resected and weighed, and a section ([…]) snap frozen and analysed for quantification of compound in pancreas sample. A section ([…]) was processed for measurement of MPO activity, IL-33 and TGF-B levels via ELISA. The remainder was fixed in formalin and embedded in paraffin wax. H&E staining was carried out and section assessed using Schmidts standard scoring system, examining: edema, inflammatory infiltration, parenchymal necrosis, haemorrhage. Massons' Trichrome staining was carried out and area covered by fibrotic tissue quantified digitally using QuPath software. Terminal serum samples was used to assess blood chemistry using an IdeXX CHEM15 and LYTE4 clip (4 animals per treatment group).
Histopathology assessment of pancreatic injury based on 4 criteria: Oedema, Inflammatory infiltration, Parenchymal necrosis, Haemorrhage and scored as described below.
Schmidt score is the evaluation of the efficacy of the compounds based on the four histopathology criteria as described in the table below.

[2] = test system: STZ-induced diabetes model; experiment: STZ-induced diabetic nephropathy, kidney disease and retinopathy model (28 days treatment); settings: for Mean day 0 blood glucose Concentration (mmol/L) (SD) / Mean day 28 blood glucose Concentration (mmol/L) (SD) / Blood BUN / Disease Score (kidney, H&E) / Eye area (retinal flatmount area covered by vasculature) / Trichrome staining (Kidney fibrosis) / Blood CRP / Blood IL-6 / Blood TGF-beta / Blood TNF-alpha / Urine albumine creatinine ratio (ALB:CRE): 15 mg/kg IV, Captopril 50 mg/kg PO; for Mean day 28 blood glucose Concentration (mmol/L) (SD) / Blood urea nitrogen levels: day 28; for Blood urea nitrogen levels: vs induced vehicle controls; for Blood BUN / Disease Score (kidney, H&E) / Eye area (retinal flatmount area covered by vasculature) / Trichrome staining (Kidney fibrosis) / Blood CRP / Blood IL-6 / Blood TGF-beta / Blood TNF-alpha / Urine albumine creatinine ratio (ALB:CRE): day 28 of treatment (week 9); for Blood CRP / Blood IL-6 / Blood TGF-beta / Blood TNF-alpha: serum; for Urine albumine creatinine ratio (ALB:CRE): urine pooled per group
Procedure: A total of 70 female CD-1 mice aged 5-7 weeks weighing approximately 25-30 g were used for the study. These were purchased from Charles River, UK and had 7 days acclimatization period. Animals were housed in IVC cages (up to 5 per cage) with individual mice identified by tail mark. All animals were allowed free access to a standard certified commercial diet and sanitised water during the study. The holding room was maintained under standard conditions: 18-24° C., 55-70% humidity and a 12 h light/dark cycle.
Mice were starved for 6 hours prior to injection. One week after completion of induction glucose levels were monitored and mice with levels less than 15 mml/L (280 mg/gL) were removed from the study as they had not developed the ideal severity of diabetes. Glucose levels were be monitored weekly and 5 weeks after STZ induction biochemical assessment of renal injury was carried out by measuring urine albumin and creatinine levels and confirming they were within the desired range. After successful completion of this stage animals were assigned to treatment groups.
Treatment continued for 4 weeks (28 days) with weekly measurement of blood glucose and urine albumin/creatinine. The study schedule is detailed below looking at weekly (week 5 to 9) blood glucose levels, urine albumin creatinie ratios, and terminal (week 9) blood chemistry and cytokines, kidney histology and eye-retinal leakage.
Urine Albumin: Creatinine (ALB: CRE): Urine was collected weekly and pooled for each treatment group.
ELISAs: At the end of the treatment period blood was collected and processed to serum. Serum levels of CRP, TGF-β, IL-6 and TNF-α were quantified using commercially available ELISA kits, results are shown in Table 56.

[3] = 1st experiment, caerulein induced, 15 mg/kg IV, Ib-010a and IVc-059a 150 mg/kg PO, Pirfenidone 40 mg/kg IV
[4] = 1st experiment, 15 mg/kg IV, Ib-010a and IVc-059a 150 mg/kg PO, Pirfenidone 40 mg/kg IV

Compound: O=C(Nc1ccccc1-c1nnn[nH]1)c1cc(O)c(C(=O)Nc2ccccc2-c2nnn[nH]2)cc1O [Ic-001aTz2, N1,N4-bis(2-(1H-tetrazol-5-yl)phenyl)-2,5-dihydroxyterephthalamide]
- Amylase ([1]; second experiment): 50.912 mU/mL
- IL-33 ([1]; second experiment): 493 ± 126 ng/mL
- Lipase ([1]; second experiment): 8.305 mU/mL
- MPO ([1]; second experiment): 2.63 ± 0.63 U/mg
- Schmidt Score ([1]; second experiment): 3.9 ± 0.8
- TGF-B ([1]; second experiment): 696 ± 448 ng/mL
- Trichome staining (Fibrosis % area) ([1]; second experiment): 1.366 ± 0.562 % area

Compound: O=C(O)c1cc(NC(=O)c2cc(O)c(C(=O)O)cc2O)cc(NC(=O)c2cc(O)c(C(=O)O)cc2O)c1 [Ib-010a, 3,5-bis(2,5-dihydroxy-4-carboxybenzoylamino)benzoic acid]
- Acinar cell necrosis (group mean score) [1, 3]: 1.0
- Haemorrhage (group mean score) [1, 3]: 0.8
- Interstitial oedema (group mean score) [1, 3]: 1.5
- Leukocyte infiltration (group mean score) [1, 3]: 3.0
- Mean terminal BW (% of initial) [1, 3]: 91 % of initial
- Mean terminal pancreas weight [1, 3]: 0.091 g
- Pancreas histopathology observations (H&E) [1, 3]: Oedema observed throughout pancreas and within; also recorded: Mild haemorrhage observed; also recorded: Mild acinar cell necrosis observed; also recorded: Leukocyte infiltration observed; also recorded: Disruption to the basophilic region
- Schmidt Score (H&E) [1, 3]: 6.3
- Pancreas IL33 level [1, 4]: 157 ± 70
- Pancreas MPO activity [1, 4]: 1.83
- Pancreas TGF-B level [1, 4]: 219 ± 140
- Serum IL33 level [1, 4]: 35.36
- Serum TGF-B level [1, 4]: 6.87
- Serum amylase level [1, 4]: 37.46
- Serum lipase level [1, 4]: 9.06
- TGF-B levels in pancreas [1]: decreased significantly
- pancreatic tissue levels of IL33 [1]: significant decrease
- Mean day 0 blood glucose Concentration (mmol/L) (SD) [2]: 25.1 (6.1) mmol/L
- Mean day 28 blood glucose Concentration (mmol/L) (SD) [2]: 31.1 (3.4) mmol/L
- Blood urea nitrogen levels [2]: significantly lower than induced vehicle controls
- Blood BUN [2]: 20.5 ± 3.4
- Disease Score (kidney, H&E) [2]: 6 ± 1
- Eye area (retinal flatmount area covered by vasculature) [2]: 11.8 ± 1
- Trichrome staining (Kidney fibrosis) [2]: 1.97 ± 0.8
- Blood CRP [2]: 5915 ± 1352
- Blood IL-6 [2]: 102.72 ± 25.4
- Blood TGF-beta [2]: 13.17 ± 3.11
- Blood TNF-alpha [2]: 395.6 ± 46.7
- Urine albumine creatinine ratio (ALB:CRE) [2]: 24.28
- Urine ALB:CREA ([2]; treatment day 28): reduced

Compound: O=C(O)c1cc(NC(=O)c2cc(O)c(C(=O)Nc3ccc(O)c(C(=O)O)c3)cc2O)ccc1O [Ic-007a, 5-(4-(3-carboxy-4-hydroxyphenylaminocarbonyl)-2,5-dihydroxybenzamido)-2-hydroxy benzoic acid]
- Acinar cell necrosis (group mean score) [1, 3]: 1.0
- Haemorrhage (group mean score) [1, 3]: 1.0
- Interstitial oedema (group mean score) [1, 3]: 1.0
- Mean terminal BW (% of initial) [1, 3]: 91.2 % of initial
- Mean terminal pancreas weight [1, 3]: 0.109 g
- Pancreas histopathology observations (H&E) [1, 3]: Mild oedema observed; also recorded: Mild haemorrhage observed; also recorded: Mild acinar cell necrosis observed; also recorded: Leukocyte infiltration observed; also recorded: Disruption to the basophilic region
- Schmidt Score (H&E) [1, 3]: 6.0
- Pancreas IL33 level [1, 4]: 147 ± 47
- Pancreas MPO activity [1, 4]: 1.65
- Pancreas TGF-B level [1, 4]: 188 ± 77
- Serum IL33 level [1, 4]: 34.93
- Serum TGF-B level [1, 4]: 6.17
- Serum amylase level [1, 4]: 34.86
- Serum lipase level [1, 4]: 9.28
- TGF-B levels in pancreas [1]: decreased significantly
- pancreatic tissue levels of IL33 [1]: significant decrease
- Retina vasculature coverage ([2]; 28 days, retinal flat mounts, FITC-dextran): significantly decreased
- Blood urea nitrogen levels [2]: significantly lower than induced vehicle controls
- Blood BUN [2]: 21.7 ± 3.0
- Disease Score (kidney, H&E) [2]: 7 ± 1
- Eye area (retinal flatmount area covered by vasculature) [2]: 9.1 ± 1.1
- Trichrome staining (Kidney fibrosis) [2]: 2.23 ± 0.61
- Blood CRP [2]: 5707 ± 892
- Blood IL-6 [2]: 109.27 ± 19.03
- Blood TGF-beta [2]: 16.66 ± 2.11
- Blood TNF-alpha [2]: 326.8 ± 63^

Compound: O=C(O)c1cc(O)c(C(=O)Nc2ccccc2-c2nnn[nH]2)cc1O [Ia-001a-Tz, 4-(2-(1H-tetrazol-5-yl)phenyl-aminocarbonyl)-2,5-dihydroxybenzoic acid]
- Mean terminal BW (% of initial) [1, 3]: 89.1 % of initial
- Mean terminal pancreas weight [1, 3]: 0.084 g
- Schmidt Score (H&E) [1, 3]: 5.9
- Pancreas IL33 level [1, 4]: 154 ± 49
- Pancreas MPO activity [1, 4]: 2.68
- Pancreas TGF-B level [1, 4]: 507 ± 289
- Serum IL33 level [1, 4]: 37.02
- Serum TGF-B level [1, 4]: 8.69
- Serum amylase level [1, 4]: 35.35
- Serum lipase level [1, 4]: 8.57
- pancreatic tissue levels of IL33 [1]: significant decrease
- Serum CRP ([2]; 28 days of treatment, vs vehicle induced controls): significantly reduced
- Serum TNF-α ([2]; 28 days, p<0.05): significantly lower than vehicle induced controls
- Mean day 0 blood glucose Concentration (mmol/L) (SD) [2]: 24.9 (7.4) mmol/L
- Mean day 28 blood glucose Concentration (mmol/L) (SD) [2]: 30.8 (6.2) mmol/L
- Blood BUN [2]: 25.3 ± 3.1
- Disease Score (kidney, H&E) [2]: 8 ± 3
- Eye area (retinal flatmount area covered by vasculature) [2]: 11.8 ± 1
- Trichrome staining (Kidney fibrosis) [2]: 2.6 ± 0.98
- Blood CRP [2]: 5191 ± 993
- Blood IL-6 [2]: 112.35 ± 20.01
- Blood TGF-beta [2]: 14.76 ± 2.95
- Blood TNF-alpha [2]: 327 ± 40.7
- Urine albumine creatinine ratio (ALB:CRE) [2]: 29.86

Compound: O=C(O)c1cc(NC(=O)c2cc(O)c(C(=O)O)cc2O)cc(C(=O)O)c1 [Ia-015a, 5-(4-carboxy-2,5-dihydroxybenzamido)isophthalic acid]
- Amylase ([1]; second experiment): 51.669 mU/mL
- IL-33 ([1]; second experiment): 398 ± 148 ng/mL
- Lipase ([1]; second experiment): 5.31 mU/mL
- MPO ([1]; second experiment): 2.68 ± 0.6 U/mg
- Schmidt Score ([1]; second experiment): 4.6 ± 0.8
- TGF-B ([1]; second experiment): 547 ± 373 ng/mL
- Trichome staining (Fibrosis % area) ([1]; second experiment): 1.704 ± 1.621 % area
- Lipase activity in serum ([1]; second experiment, pirfenidone 100 mg/kg, compounds 15 mg/k, vs vehicle treated animals): significantly lower than that in vehicle treated animals

Compound: O=C(O)c1cc(NC(=O)c2cc(O)cc(C(=O)Nc3ccc(O)c(C(=O)O)c3)c2O)ccc1O [IIc-007a, 5-(3-(3-carboxy-4-hydroxyphenylaminocarbonyl)-2,5-dihydroxybenzamido)-2-hydroxy benzoic acid]
- Amylase ([1]; second experiment): 45.325 mU/mL
- IL-33 ([1]; second experiment): 340 ± 211 ng/mL
- Lipase ([1]; second experiment): 6.481 mU/mL
- MPO ([1]; second experiment): 2.74 ± 0.76 U/mg
- Schmidt Score ([1]; second experiment): 8.3 ± 1.6
- TGF-B ([1]; second experiment): 500 ± 195 ng/mL
- Trichome staining (Fibrosis % area) ([1]; second experiment): 1.821 ± 1.12 % area

Reference: patent US20230150951A1, “2,5- OR 2,6-DISUBSTITUTED HYDROQUINONE DERIVATIVES WITH AT LEAST ONE CARBOXY, SULFO OR AMIDO GROUP USEFUL AS MEDICAMENTS” (OM PHARMA SA, priority 2020, published 2023)
